{
  "source": "patent US7419788B2",
  "about": "“Method for screening anti-bacterial agents” (priority 2001, dated 2008)",
  "target": "T1, transpeptidase enzyme (PBP1b) (Escherichia coli, UniProt P02919)",
  "T1 construct": "the ponB gene encoding PBP1b is overexpressed since the strain contains a plasmid comprising a further copy of ponB under the control of its native promoter; made in house; host or cells: Escherichia coli AMA1004 ΔponA; pBS96 (membranes solubilised with 1% CHAPS and 1M NaCl; supernatant used)",
  "T1 sequence (P02919 whole entry)": "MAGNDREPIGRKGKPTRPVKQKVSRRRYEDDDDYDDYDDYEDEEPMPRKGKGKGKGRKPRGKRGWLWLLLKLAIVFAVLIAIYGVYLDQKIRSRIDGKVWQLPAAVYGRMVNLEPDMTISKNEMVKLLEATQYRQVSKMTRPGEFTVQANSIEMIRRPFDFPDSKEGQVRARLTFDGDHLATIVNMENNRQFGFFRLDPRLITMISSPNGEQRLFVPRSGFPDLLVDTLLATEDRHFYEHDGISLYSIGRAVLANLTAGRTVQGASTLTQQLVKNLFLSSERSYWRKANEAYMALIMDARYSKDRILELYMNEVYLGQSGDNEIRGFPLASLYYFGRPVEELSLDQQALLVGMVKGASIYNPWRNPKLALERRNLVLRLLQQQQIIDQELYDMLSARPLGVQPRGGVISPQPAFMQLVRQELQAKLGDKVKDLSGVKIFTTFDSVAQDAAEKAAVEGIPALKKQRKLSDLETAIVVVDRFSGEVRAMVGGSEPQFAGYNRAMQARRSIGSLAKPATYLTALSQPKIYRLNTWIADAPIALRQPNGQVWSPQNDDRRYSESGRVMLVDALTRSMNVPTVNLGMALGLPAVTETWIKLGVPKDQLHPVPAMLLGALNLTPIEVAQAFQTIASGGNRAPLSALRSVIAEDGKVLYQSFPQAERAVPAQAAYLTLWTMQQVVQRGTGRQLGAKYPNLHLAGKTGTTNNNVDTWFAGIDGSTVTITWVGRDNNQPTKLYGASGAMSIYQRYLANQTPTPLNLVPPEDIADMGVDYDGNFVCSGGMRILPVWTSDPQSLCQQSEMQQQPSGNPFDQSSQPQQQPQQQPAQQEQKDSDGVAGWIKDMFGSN",
  "experiment": "Scintillation proximity assay for formation of radiolabelled cross-linked peptidoglycan (transpeptidase inhibition)",
  "type": "biochemical",
  "experimental": "4 mg of Escherichia coli AMA1004 cell membranes prepared as described in WO 99/60155 were incubated with 5 ml of 100 mM ampicillin in 50 mM Tris HCl buffer pH 7.5 and 0.1 mM MgCl2 for 30 minutes at room temperature. The membranes were sedimented by centrifugation at 150,000×g for 15 minutes and then washed three times. They were finally resuspended in 1 ml of 50 mM Tris HCl buffer and 0.1 mM MgCl2. […]\nThe membranes of this E. coli strain were prepared as described in WO 99/60155. They were then treated with a detergent, 1% (3-[(3-cholamidopropyl)dimethylammonio]-1-propane-sulphonate (CHAPS), and 1M NaCl at a protein concentration of 5 mg/ml for 1 hour at room temperature. The mixture was then centrifuged at 150,000×g for 15 minutes in a Beckman table top ultracentrifuge and the supernatant containing PBP1b collected. The quantity of PBP1b protein used was the “soluble fraction” equivalent to 5 μg of starting membrane. […]\nThe microtitre plate was left for 3 to 10 hours at room temperature before being counted in the “Microbeta Trilux” counter. […]\nTable 1 below enumerates the inhibitory effects of penicillin G on the transpeptidase enzyme (after subtracting the corresponding 0% reaction readings).",
  "data": [
    {"smiles": "CC1(C)S[C@@H]2[C@H](NC(=O)Cc3ccccc3)C(=O)N2[C@H]1C(=O)O", "note": "[Penicillin G, penicillin G]", "values": [
      {"measurement": "Counts per minute", "setting": "after subtracting the corresponding 0% reaction readings, PBP1b extract from E. coli AMA1004 ΔponA, pBS96, ampicillin-treated AMA1004 membranes, 37° C. for 15 minutes", "value": 319},
      {"measurement": "% Inhibition", "setting": "inhibitory effect on the transpeptidase enzyme, relative to wells with no test compound (100% reaction controls), test concentration not given", "value": 94, "unit": "%"}
    ]}
  ]
}
